# Results from article PMC9150124, “Design of a Potent, Selective, and Brain-Penetrant Inhibitor of Wnt-Deactivating Enzyme Notum by Optimization of a Crystallographic Fragment Hit” (Journal of Medicinal Chemistry, 2022).
# Where “and” joins values, the source holds several entries; their conditions need not be identical. Equal values may be shown once.
# Legend:
# [1] = mouse PK, comparable study; cited from earlier work
# [2] = molecular target: T1, human Notum (81–451 Cys330Ser) (Homo sapiens, UniProt Q6P988, C330S); assay: Notum OPTS biochemical assay
# T1 construct: human Notum (81–451 Cys330Ser) as the enzyme; made in house
# T1 sequence (Q6P988 81-451 C330S): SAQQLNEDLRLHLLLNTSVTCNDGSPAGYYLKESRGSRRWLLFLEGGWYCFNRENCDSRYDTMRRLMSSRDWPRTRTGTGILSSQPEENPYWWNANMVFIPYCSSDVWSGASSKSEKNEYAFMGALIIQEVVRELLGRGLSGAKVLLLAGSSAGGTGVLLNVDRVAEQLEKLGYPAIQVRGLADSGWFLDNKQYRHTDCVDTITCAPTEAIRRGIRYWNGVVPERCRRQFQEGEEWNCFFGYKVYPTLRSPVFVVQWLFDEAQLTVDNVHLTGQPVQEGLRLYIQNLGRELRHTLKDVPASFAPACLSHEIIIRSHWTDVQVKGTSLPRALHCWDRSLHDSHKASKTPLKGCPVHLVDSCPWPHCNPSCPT
# From the text: The optimization of 6 to deliver this profile was directed at three principle areas of these hit structures: (1) aryl ring 7 (Table 1); (2) the C4 substituent on triazole 8 (Table 2); and (3) further fine-tuning of the triazole 9 (Table 3). […] This assay was used to establish SAR and to identify preferred leads for additional studies.
# Methods have been described in detail elsewhere.[23]−[26] Representative concentration–response curves are provided in the Supporting Information.
# [3] = Aqueous solubility in PBS (pH 7.4); format: physicochemical; conditions: for solubility: PBS pH 7.4, read-out: aq. solubility; for solubility thermodynamic: PBS, pH 7.4, n = 2, read-out: Thermodynamic Solubility @ RT, mean
# From the text: (§1) Biosciences (Hyderabad, India) or WuXi AppTec (Shanghai, China).
# (§2) Table S1: Representative assay protocol
# [4] = Stability in mouse liver microsomes; format: in vitro ADME; parameters: MLM Stability Cli mean: unit not given here; conditions: for half-life: mouse, liver microsomes, read-out: MLM Stability t1/2
# [5] = Stability in human liver microsomes; format: in vitro ADME; parameters: HLM Stability Cli mean: unit not given here; conditions: for half-life: human, liver microsomes, read-out: HLM Stability t1/2
# in vivo = assay: in vivo; parameters: species or system mouse; conditions: mouse, p.o. 10 mg/kg
# Protocol: Mouse pharmacokinetic (PK) data was generated at Charles River Laboratories (Groningen, Netherlands) and GVK
# Biosciences (Hyderabad, India). Rat PK was performed by WuXi AppTec (Shanghai, China).
# Animal Testing Declaration: All in life phase studies were conducted in accordance with local Ethics Review
# process. See, statements from each company.
# in vitro = conditions: dog
# MDR1 (P-gp) = assay: in vitro; conditions: dog
# P-gp (MDR1) = assay: in vitro; conditions: dog
# [6] = Metabolic stability in mouse hepatocytes
# [7] = Distribution coefficient LogD7.4 (shake flask); format: physicochemical; conditions: for logD at 1 h: 1-octanol/10 mM phosphate buffer, pH 7.4, octanol/buffer
# Protocol: Molecular properties (MW, clogP, and TPSA) were calculated with ChemDraw Professional v16.0.1.4(77). Distribution coefficients (LogD7.4) were measured using the shake flask method.
# as §1
# A. Distribution coefficient (LogD7.4):
# as §2
# Octanol/buffer partition coefficient. 500 µL of organic phase (1-octanol) was added to each well of a 2 mL deep well plate, followed by 500 µL of buffer and 15 µL of test substance was added. The plate was vortexed for 1 hr on a plate shaker at 1200 Method rpm. After incubation, the samples were allowed to equilibrate for 20 min and then centrifuged at 4000 rpm for 30 min for complete phase separation and analysed by […]
# Buffer 10 mM phosphate buffer
# Test compound concentration 0.15 mM
# End Point Fractional distribution of test compound between octanol and buffer […]
# B. Aqueous solubility at pH 7.4:
# Thermodynamic Solubility @ RT
# [8] = Brain tissue binding, rapid equilibrium dialysis; format: in vitro ADME, rat
# Protocol: Method: rapid equilibrium dialysis.
# Test System Mouse Brain Homogenate 10% w/v in PBS
# Incubation Time 5 h (mouse) or 4 h (rat)
# No. of Replicates Two (mouse) or three (rat)
# Buffer Phosphate buffer saline, pH 7.4
# % Unbound in brain % Bound in brain %
# Compound Species / Matrix homogenate SD homogenate Recovery
# [9] = MDCK-MDR1, MDCK-MDR1 AB Papp, apical to basal
# [10] = MDCK-MDR1, MDCK-MDR1 BA Papp, basal to apical
# [11] = MDCK-MDR1, MDR1-MDCKII A to B % Recovery
# [12] = MDCK-MDR1, MDR1-MDCKII B to A % Recovery
solubility [3],solubility thermodynamic [3],MLM Cli [4],half-life ([4]; Table S4),HLM Cli [5],half-life ([5]; Table S4),Papp (in vitro; [9]),Papp (in vitro; [10]),recovery (MDR1 (P-gp); [11]),recovery (MDR1 (P-gp); [12]),Papp (P-gp (MDR1); [9]),Papp (P-gp (MDR1); [10]),logD at 1 h [7],SMILES,also measured
,,,,,,,,,,,,,Cc1c(C(F)(F)F)oc2ncnc(SCC(=O)N3CC(=O)N(C)C3)c12 [compound 3],brain-to-plasma ratio Kp [1]: 0.29
210 µg/mL and 680 µM,213 µg/mL,6.7 μL/min/mg protein,1.75 h,1.7 μL/min/mg protein,9.21 h,46 ×10⁻⁶ cm/s,28 ×10⁻⁶ cm/s,94.1%,97.5%,45.9 ×10⁻⁶ cm/s,27.8 ×10⁻⁶ cm/s,,"OCc1cn(-c2ccc(Cl)c(C(F)(F)F)c2Cl)nn1 [7y, ((2,4-Dichloro-3-(trifluoromethyl)phenyl)-1H-1,2,3-triazol-4-yl)methanol]","fold more active than hit 6b [2]: 50 fold; fold more active than unsubstituted phenyl 7a [2]: 10,000 fold; IC50 ([2]; OPTS substrate, mean, read-out: Notum IC50): 9.5 ± 0.2 nM; MLM Stability Cli mean ([4]; Table S4): 6.65; HLM Stability Cli mean ([5]; Table S4): 1.65; Kp (in vivo; male, C57/BL6, brain and plasma, po, AUC0–inf brain/plasma, total drug, read-out: brain-to-plasma ratio (Kp)): 1.2; AUC0–inf (in vivo; plasma): 150 ng·h/mL; Cmax (in vivo; plasma): 300 ng/mL; efflux ratio (P-gp (MDR1); MDCK-MDR1, MDCK-MDR1 efflux ratio (ER)): 0.61; mouse hepatocytes Cli [6]: 48 μL/min/10^6 cells; half-life ([6]; mouse, hepatocytes): 0.598 h"
100 µg/mL,104 µg/mL,88 μL/min/mg protein,0.263 h,12 μL/min/mg protein,1.92 h,57 ×10⁻⁶ cm/s,59 ×10⁻⁶ cm/s,80.7%,87.2%,56.6 ×10⁻⁶ cm/s,58.3 ×10⁻⁶ cm/s,2.41,"OCc1cn(-c2ccc(Cl)c(Cl)c2)nn1 [6b, ((3,4-Dichlorophenyl)-1H-1,2,3-triazol-4-yl)methanol]","LogD7.4 ([7]; octanol/buffer, pH 7.4): 2.4"
,,,,,,,,,,,,-0.27,"COCCc1ccc(OCC(O)CNC(C)C)cc1 (stereo not drawn) [Metoprolol, reference compound]",
,,,,,,,,,,,,,"CC(C)NCC(O)COc1cccc2ccccc12 (stereo not drawn) [Propranolol, reference compound]","fraction unbound at 4 h, 2 µM ([8]; brain homogenate, pH 7.4, SD rat, 4 h): 0.026; recovery at 4 h, 2 µM ([8]; pH 7.4, SD rat brain homogenate): 78.2%; Brain binding, % bound ([8]; rat brain homogenate): 97.4%"
